≈ marks a conversion by molar mass, not a printed value. Read-outs that look alike come from different tables or passages of the source.
How the values were obtained:
solid cancer cells = experiment: Growth-inhibiting activity against cultured solid cancer cells; assay type: cell-based, human; conditions: for effectiveness against cells derived from tumors, particularly solid cancers: colic, mammary, pulmonary and gastric cancer, mammals, in particular human
Description: (§1) Using various human cancer cells, the concentrations of test compounds which inhibits the growth of cancer cells by 50% were determined. Specifically, each of K562 (leukemic cell), HT29 (colic cancer), HT1080 (reticulogranuloma cell), MCF7 (mammary cancer cell), PC6 (pulmonary cancer cell) and MKN28 (gastric cancer cell) was added to a 96-well microtiter/plate at a density of 2-5×10^3 cells per well, and RPM11640 medium (phenol red-free) containing 10% FBS, together with a test compound, was added thereto. Then, this plate was incubated at 37° C. for 3 days in an atmosphere of air containing 5% CO2. Thereafter, 10 μl of WST-1 reagent [0.065% 2-(4-iodophenyl)-3-(4-nitrophenyl)-5-(2,4-disulfonyl)-2H-tetrazolium monosodium salt, 0.007% 1-methoxy-5-methylphenazium methylsulfate] was added to each well, and the plate was further incubated for 3 hours. Then, the absorbance of each well at 450 nm (with a reference wavelength of 650 nm) was measured with a plate reader.

[1] = tested on: PC6 (pulmonary cancer cell); experiment: Inhibition of growth of human cancer cells (WST-1, 3 days); assay type: cell-based; conditions: 72 h, read-out: IC50 value
Description: as §1

[2] = tested on: MCF7 (mammary cancer cell); experiment: as above; assay type: cell-based; conditions: read-out: IC50 value
Description: as §1

HT29 (colic cancer) = experiment: as above; assay type: cell-based; conditions: HT-29, 72 h, read-out: IC50 value
Description: as §1

K562 (leukemic cell) = experiment: as above; assay type: cell-based; conditions: read-out: IC50 value
Description: as §1

[3] = tested on: MKN28 (gastric cancer cell); experiment: as above; assay type: cell-based; conditions: MKN-28, 72 h, read-out: IC50 value
Description: as §1

tumor cells = experiment: Growth-inhibiting activity against various types of tumor cells; assay type: cell-based, human; conditions: as compared with chrysomycins
Description: as §1

[4] = organic solvents such as chloroform, acetone and methanol

Solubility (Solubility; [4]) | Solubility (Solubility; water) | IC50 ([1]; PC6, 3 days, 37° C.) [µg/mL] | IC50 ([2]; 72 h, MCF7, 3 days, 37° C.) [µg/mL] | IC50 (HT29 (colic cancer); HT29, 3 days, 37° C.) [µg/mL] | IC50 (K562 (leukemic cell); 72 h, K562, 3 days, 37° C.) [µg/mL] | IC50 ([3]; MKN28, 3 days, 37° C.) [µg/mL] | SMILES | effectiveness against cells derived from tumors, particularly solid cancers (solid cancer cells) | IC50 [1] [µg/mL] | IC50 ([2]; MCF7, 72 h) [µg/mL] | IC50 (HT29 (colic cancer)) [µg/mL] | IC50 (K562 (leukemic cell); K562, 72 h) [µg/mL] | IC50 [3] [µg/mL] | growth-inhibiting activity against all types of cultured solid cancers used for testing (solid cancer cells; all types tested) | growth-inhibiting activity against various types of tumor cells (tumor cells)
Soluble | insoluble | 34 (≈ 101 µM) | 17 (≈ 50.5 µM) | 19 (≈ 56.5 µM) | 8.1 (≈ 24.1 µM) | 11 (≈ 32.7 µM) | COc1cc2c(oc(=O)c3cc(C)cc(OC)c32)c2cccc(O)c12 [Mer-1020dE] |  |  |  |  |  |  |  | lower as compared with chrysomycins
Soluble | insoluble | 0.03 (≈ 0.0592 µM) | 0.42 (≈ 0.829 µM) | 0.1 (≈ 0.197 µM) | 0.11 (≈ 0.217 µM) | 0.32 (≈ 0.632 µM) | C=Cc1cc(OC)c2c(c1)c(=O)oc1c2cc(OC)c2c(O)ccc(C3OC(C)C(=O)C(C)(O)C3O)c21 (stereo not drawn) [Mer-1020dC] | remarkable effectiveness |  |  |  |  |  |  | 
 |  | 3.5 (≈ 7.05 µM) | 2.58 (≈ 5.2 µM) | 2.63 (≈ 5.3 µM) | 1.76 (≈ 3.54 µM) | 2.65 (≈ 5.34 µM) | COc1cc2c(oc(=O)c3cc(C)cc(OC)c32)c2c(C3OC(C)C(O)C(C)(O)C3O)ccc(O)c12 (stereo not drawn) [Chrysomycin B, reference compound] |  |  |  |  |  |  |  | 

The next lines start with the molecule.

SMILES | Solubility (Solubility; [4]) | Solubility (Solubility; water) | IC50 ([1]; PC6, 3 days, 37° C.) [µg/mL] | IC50 ([2]; 72 h, MCF7, 3 days, 37° C.) [µg/mL] | IC50 (HT29 (colic cancer); HT29, 3 days, 37° C.) [µg/mL] | IC50 (K562 (leukemic cell); 72 h, K562, 3 days, 37° C.) [µg/mL] | IC50 ([3]; MKN28, 3 days, 37° C.) [µg/mL] | effectiveness against cells derived from tumors, particularly solid cancers (solid cancer cells) | IC50 [1] [µg/mL] | IC50 ([2]; MCF7, 72 h) [µg/mL] | IC50 (HT29 (colic cancer)) [µg/mL] | IC50 (K562 (leukemic cell); K562, 72 h) [µg/mL] | IC50 [3] [µg/mL] | growth-inhibiting activity against all types of cultured solid cancers used for testing (solid cancer cells; all types tested) | growth-inhibiting activity against various types of tumor cells (tumor cells)
C=Cc1cc(OC)c2c(c1)c(=O)oc1c2cc(OC)c2c(O)ccc(C3OC(C)C(O)(C(C)=O)C3O)c21 (stereo not drawn) [Mer-1020dD] | Soluble | insoluble | 2.5 (≈ 4.94 µM) | 0.6 (≈ 1.18 µM) | 0.15 (≈ 0.296 µM) | 0.21 (≈ 0.415 µM) | 1 (≈ 1.97 µM) | remarkable effectiveness |  |  |  |  |  |  | 
C=Cc1cc(OC)c2c(c1)c(=O)oc1c2cc(OC)c2c(O)ccc(C3OC(C)C(O)C(C)(O)C3O)c21 (stereo not drawn) [Chrysomycin A, reference compound] |  |  |  |  |  |  |  |  | 0.335 (≈ 0.659 µM) | 0.53 (≈ 1.04 µM) | 0.84 (≈ 1.65 µM) | 0.106 (≈ 0.208 µM) | 0.144 (≈ 0.283 µM) |  | 
COc1cc2c(oc(=O)c3cc(C)cc(OC)c32)c2c(C3OC(C)C(O)(C(C)=O)C3O)ccc(O)c12 (stereo not drawn) [Mer-1020dA] | Soluble | insoluble | 0.064 (≈ 0.129 µM) | 0.032 (≈ 0.0647 µM) | 0.075 (≈ 0.152 µM) | 0.36 (≈ 0.728 µM) | 0.017 (≈ 0.0344 µM) | remarkable effectiveness |  |  |  |  |  | significantly excellent growth-inhibiting activity | 
COc1cc2c(oc(=O)c3cc(C)cc(OC)c32)c2c(C3OC(C)C(=O)C(C)(O)C3O)ccc(O)c12 (stereo not drawn) [Mer-1020dB] | Soluble | insoluble | 0.11 (≈ 0.222 µM) | 0.35 (≈ 0.708 µM) | 0.35 (≈ 0.708 µM) | 0.28 (≈ 0.566 µM) | 0.35 (≈ 0.708 µM) | remarkable effectiveness |  |  |  |  |  |  | 

From patent US6030951A, “Chrysomycin derivative compounds and use as antitumor agents” (Mercian Corporation, priority 1996, dated 2000)
